We go through 46 compounds from patent publication US9963462B2 (priority 2015, dated 2018).

What is called IC50 is the concentration that inhibits the measured activity by half.

For assay [1], the target named is SNAP-hSPR (sepiapterin reductase, SPR) (Homo sapiens, UniProt P35270). As to the kind of experiment: biochemical. It is filed as binding. Particulars: terbium labelled SNAP-hSPR / SSZ labelled SNAP-EGFP; read-out: hTR-FRET IC50.
In assay [2] the test system is BH4 production in human peripheral blood mononuclear cells (PBMCs). As to the kind of experiment: hPBMC assay, inhibition of BH4 production by LC-MS (anti-CD3/anti-CD28 stimulated). It counts as cell-based. The settings on record: PBMC, read-out: hPBMC IC50.
For assay [3], the system named is BH4 levels in SK-N-BE (2) cells. As to the kind of experiment: SKN-N-BE (2) cellular assay, BH4 levels by LC-MS. It counts as cell-based. Particulars: Homo sapiens, SKNBE2, read-out: SK-N-BE(2) IC50, SK-N-BE (2) cells, BH4 levels by LC-MS.

Sequence of SNAP-hSPR (sepiapterin reductase, SPR) (P35270 whole entry): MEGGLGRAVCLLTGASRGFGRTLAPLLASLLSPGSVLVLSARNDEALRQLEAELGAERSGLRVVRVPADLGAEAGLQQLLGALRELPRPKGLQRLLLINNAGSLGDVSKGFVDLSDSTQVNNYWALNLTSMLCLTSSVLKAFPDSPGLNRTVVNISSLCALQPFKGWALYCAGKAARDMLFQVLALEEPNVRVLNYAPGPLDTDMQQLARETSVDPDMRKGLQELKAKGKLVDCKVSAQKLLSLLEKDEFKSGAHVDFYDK

As to `Cc1c(C(=O)N2CCN(CC(F)(F)F)CC2)cnn1-c1nc2c(c(=O)[nH]1)CCC2` [Q-0737], the IC50 in assay [1] was 5 nM; in assay [2], 37 nM; in assay [3], 200 nM.

As to `Cc1c(C(=O)N2CCN(C(=O)OC(C)(C)C)CC2)cnn1-c1nn2cccc2c(=O)[nH]1` [Q-0750], the figures for the 50% inhibitory concentration (IC50) in assay [1], in assay [2] and in assay [3] were 3 nM, 180 nM and 500 nM, respectively.

`Cc1c(C(=O)N2CCN(CC(F)(F)F)CC2)cnn1-c1nn2cccc2c(=O)[nH]1` [Q-0760]: the IC50 in assay [1] amounted to 1 nM; in assay [2], 75 nM; in assay [3] it was 400 nM.

Consider `Cc1c(C(=O)N2CCC3(CC2)CC3(F)F)cnn1-c1nn2cccc2c(=O)[nH]1` [Q-0761], for which the values for the concentration for half-maximal inhibition (IC50) in assay [1], in assay [2] and in assay [3] were 2 nM, 140 nM and 200 nM, respectively.

For the compound `Cc1c(C(=O)N2CCN(C3CC3)CC2)cnn1-c1nn2cccc2c(=O)[nH]1` [Q-0764], the values for the IC50 in assay [1], in assay [2] and in assay [3] were 2 nM, 100 nM and 300 nM, respectively.

`Cc1c(C(=O)N2CCC3(CC2)CN(C(=O)OC(C)(C)C)C3)cnn1-c1nn2cccc2c(=O)[nH]1` [Q-0768]: the IC50 stood at 2 nM in assay [1], 45 nM in assay [2] and 200 nM in assay [3].

In the case of `Cc1c(C(=O)N2CC3(CCN(C(=O)OC(C)(C)C)CC3)C2)cnn1-c1nn2cccc2c(=O)[nH]1` [Q-0772], the IC50 in assay [1] came to 1 nM; in assay [2], 72 nM; in assay [3], 200 nM.

As for `CCC1(C#N)CCN(C(=O)c2nnn(-c3nn4cccc4c(=O)[nH]3)c2C)CC1` [Q-0777], the IC50 worked out at 1 nM in assay [1], 55 nM in assay [2] and 300 nM in assay [3].

For `Cc1c(C(=O)N2CCC(C(C)(O)C(F)(F)F)CC2)cnn1-c1nn2cccc2c(=O)[nH]1` (stereo not drawn) [Q-0782], the IC50 worked out at 1 nM in assay [1], 38 nM in assay [2] and 100 nM in assay [3].

In the case of `Cc1c(C(=O)N2CCC(OCC(F)(F)F)CC2)cnn1-c1nn2cccc2c(=O)[nH]1` [Q-0784], the IC50 in assay [1] was determined as 1 nM; in assay [2] it was 120 nM; in assay [3], 300 nM.

Turning to `Cc1c(C(=O)N2CC(F)(F)C2)cnn1-c1nn2cccc2c(=O)[nH]1` [Q-0789], the IC50 in assay [1] worked out at 8 nM; in assay [2] it was 440 nM; in assay [3] it was 2500 nM.

Regarding `Cc1c(C(=O)N2CCC2)cnn1-c1nn2cccc2c(=O)[nH]1` [Q-0794], the IC50 in assay [1] came out at 10 nM; in assay [2] it was 410 nM; in assay [3], 3500 nM.

In the case of `Cc1c(C(=O)N2C3CCC2CC(O)(c2ccccc2)C3)cnn1-c1nn2cccc2c(=O)[nH]1` (stereo not drawn) [Q-0797], the IC50 in assay [1] was determined as 1 nM; in assay [2], 27 nM; in assay [3], 100 nM.

`Cc1c(C(=O)N2CCC(C)(C#N)CC2)cnn1-c1nn2cccc2c(=O)[nH]1` [Q-0800]: the results for the IC50 in assay [1], in assay [2] and in assay [3] were 2 nM, 47 nM and 600 nM, respectively.

As to `Cc1c(C(=O)N2CC3CC(F)(F)C3C2)cnn1-c1nn2cccc2c(=O)[nH]1` (stereo not drawn) [Q-0804], the IC50 in assay [1] came out at 1 nM; in assay [2], 94 nM; in assay [3], 300 nM.

As to `Cc1c(C(=O)N2CC(N3CCC(F)(F)C3)C2)cnn1-c1nn2cccc2c(=O)[nH]1` [Q-0812], the IC50 is 3 nM in assay [1], 150 nM in assay [2] and 1000 nM in assay [3].

For the compound `Cc1c(C(=O)N2CC3(CCCC3)C2)cnn1-c1nn2cccc2c(=O)[nH]1` [Q-0813], the IC50 in assay [1] amounted to 1 nM; in assay [2], 65 nM; in assay [3], 100 nM.

With `Cc1c(C(=O)N2CCC(O)(C3CC3)CC2)cnn1-c1nn2cccc2c(=O)[nH]1` [Q-0815], the IC50 in assay [1] stood at 1 nM; in assay [2] it was 72 nM; in assay [3] it was 100 nM.

Regarding `Cc1c(C(=O)N2CC3(C2)CC(F)(F)C3)cnn1-c1nn2cccc2c(=O)[nH]1` [Q-0816], the results for the IC50 in assay [1], in assay [2] and in assay [3] were 1 nM, 170 nM and 600 nM, respectively.

`Cc1c(C(=O)N2CCC(C3(C#N)CC3)CC2)cnn1-c1nn2cccc2c(=O)[nH]1` [Q-0817]: the IC50 in assay [1] is 1 nM; in assay [2], 44 nM; in assay [3], 200 nM.

Consider `Cc1c(C(=O)N2CCN(C3CCC3)CC2)cnn1-c1nn2cccc2c(=O)[nH]1` [Q-0821], for which the half-maximal inhibitory concentration (IC50) was determined as 1 nM in assay [1], 51 nM in assay [2] and 100 nM in assay [3].

In the case of `Cc1c(C(=O)N2CC3(CSC3)C2)cnn1-c1nn2cccc2c(=O)[nH]1` [Q-0822], the IC50 in assay [1] amounted to 2 nM; in assay [2], 130 nM; in assay [3] it was 400 nM.

With `Cc1c(C(=O)N2CCC(CC#N)CC2)cnn1-c1nn2cccc2c(=O)[nH]1` [Q-0825], the IC50 in assay [1] was determined as 2 nM; in assay [2], 150 nM; in assay [3], 400 nM.

On to `Cc1c(C(=O)N2CCN(c3ccc(Cl)cn3)CC2)cnn1-c1nn2cccc2c(=O)[nH]1` [Q-0835], for which the IC50 is 2 nM in assay [1], 39 nM in assay [2] and 100 nM in assay [3].

In the case of `Cc1c(C(=O)N2CCN(c3ccc(C(F)(F)F)cn3)CC2)cnn1-c1nn2cccc2c(=O)[nH]1` [Q-0836], the IC50 in assay [1] stood at 5 nM; in assay [2] it was 52 nM; in assay [3], 300 nM.

Take `Cc1c(C(=O)N2CC3CCC(C2)C3(O)C(F)(F)F)cnn1-c1nn2cccc2c(=O)[nH]1` (stereo not drawn) [Q-0837]: the IC50 in assay [1] is 1 nM; in assay [2], 63 nM; in assay [3], 200 nM.

For `Cc1c(C(=O)N2CCC(C(C)C#N)CC2)cnn1-c1nn2cccc2c(=O)[nH]1` (stereo not drawn) [Q-0849], the figures for the IC50 in assay [1], in assay [2] and in assay [3] were 1 nM, 44 nM and 300 nM, respectively.

`Cc1c(C(=O)N2CC(N(C)C(=O)OC(C)(C)C)C2)cnn1-c1nn2cccc2c(=O)[nH]1` [Q-0850]: the IC50 in assay [1] stood at 1 nM; in assay [2] it was 74 nM; in assay [3], 300 nM.

For `Cc1c(C(=O)N2CC[C@H](N(C)C(=O)OC(C)(C)C)C2)cnn1-c1nn2cccc2c(=O)[nH]1` [Q-0851], the IC50 stood at 2 nM in assay [1], 130 nM in assay [2] and 500 nM in assay [3].

For `Cc1c(C(=O)N2CC(C)(NC(=O)OC(C)(C)C)C2)cnn1-c1nn2cccc2c(=O)[nH]1` [Q-0867], the IC50 was determined as 2 nM in assay [1], 70 nM in assay [2] and 400 nM in assay [3].

Take `Cc1c(C(=O)N2CCN(C(=O)OC(C)(C)C)C(C)C2)cnn1-c1nn2cccc2c(=O)[nH]1` (stereo not drawn) [Q-0887]: the IC50 came out at 1 nM in assay [1], 57 nM in assay [2] and 200 nM in assay [3].

For the compound `Cc1c(C(=O)N2CCN(C(C)(C)C)CC2)cnn1-c1nn2cccc2c(=O)[nH]1` [Q-0888], the IC50 in assay [1] was 5 nM; in assay [2], 240 nM; in assay [3], 400 nM.

On to `Cc1c(C(=O)N2CC3(CN(CC(F)(F)F)C3)C2)cnn1-c1nn2cccc2c(=O)[nH]1` [Q-0891], for which the IC50 in assay [1] amounted to 4 nM; in assay [2] it was 240 nM; in assay [3], 900 nM.

With `Cc1c(C(=O)N2CCN(C(=O)OC(C)(C)C)C[C@H]2C)cnn1-c1nn2cccc2c(=O)[nH]1` [Q-0892], the IC50 turned out to be 2 nM in assay [1], 76 nM in assay [2] and 400 nM in assay [3].

With `Cc1c(C(=O)N2C[C@@H]3CCC(F)(F)[C@@H]3C2)cnn1-c1nn2cccc2c(=O)[nH]1` [Q-0896], the results for the IC50 in assay [1], in assay [2] and in assay [3] were 1 nM, 49 nM and 300 nM, respectively.

`Cc1c(C(=O)N2CCN(C(=O)OC(C)(C)C)[C@H](C)C2)cnn1-c1nn2cccc2c(=O)[nH]1` [Q-0899]: the IC50 in assay [1] is 1 nM; in assay [2] it was 48 nM; in assay [3], 300 nM.

In the case of `Cc1c(C(=O)N2CCN3CC(F)(F)C[C@H]3C2)cnn1-c1nn2cccc2c(=O)[nH]1` [Q-0906], the IC50 was 3 nM in assay [1], 190 nM in assay [2] and 800 nM in assay [3].

For the compound `Cc1c(C(=O)N2CCN(CC(F)(F)F)C(C)C2)cnn1-c1nn2cccc2c(=O)[nH]1` (stereo not drawn) [Q-0908], the 50% inhibitory concentration (IC50) in assay [1] amounted to 1 nM; in assay [2] it was 130 nM; in assay [3] it was 300 nM.

`Cc1c(C(=O)N2C3CCC2CC(F)(F)C3)cnn1-c1nn2cccc2c(=O)[nH]1` [Q-0910]: the values for the IC50 in assay [1], in assay [2] and in assay [3] were 2 nM, 74 nM and 500 nM, respectively.

On to `Cc1c(C(=O)N2CCC3(CC2)CC3C(=O)N2CCCC2)cnn1-c1nn2cccc2c(=O)[nH]1` (stereo not drawn) [Q-0911], for which the half-inhibitory concentration (IC50) in assay [1] worked out at 2 nM; in assay [2], 110 nM; in assay [3] it was 400 nM.

Turning to `Cc1c(C(=O)N2CCN(C(=O)OC(C)(C)C)C[C@@H]2C)cnn1-c1nn2cccc2c(=O)[nH]1` [Q-0915], the IC50 in assay [1] was found to be 2 nM; in assay [2], 92 nM; in assay [3] it was 500 nM.

Consider `Cc1c(C(=O)N2CCC3OCCCC3C2)cnn1-c1nn2cccc2c(=O)[nH]1` (stereo not drawn) [Q-0917], for which the IC50 in assay [1] is 3 nM; in assay [2], 100 nM; in assay [3] it was 700 nM.

As for `Cc1c(C(=O)N2CCN(CC#N)CC2)cnn1-c1nn2cccc2c(=O)[nH]1` [Q-0918], the IC50 in assay [1] amounted to 2 nM; in assay [2], 120 nM; in assay [3] it was 600 nM.

As for `Cc1c(C(=O)N2CCC3(CC3)C2)cnn1-c1nn2cccc2c(=O)[nH]1` [Q-0921], the concentration for half-maximal inhibition (IC50) amounted to 2 nM in assay [1], 47 nM in assay [2] and 400 nM in assay [3].

As to `Cc1c(C(=O)N2CCC3(CC2)CN(C(=O)OC(C)(C)C)C3)cnn1-c1nc2c(c(=O)[nH]1)CCC2` [Q-0924], the IC50 is 2 nM in assay [1], 51 nM in assay [2] and 200 nM in assay [3].

Take `Cc1c(C(=O)N2CCC(C(F)F)CC2)cnn1-c1nn2cccc2c(=O)[nH]1` [Q-0926]: the concentration for half-maximal inhibition (IC50) in assay [1] was 1 nM; in assay [2] it was 45 nM; in assay [3] it was 200 nM.
